Test results reported in US20260109707A1, “HETEROBIFUNCTIONAL COMPOUNDS AND METHODS OF TREATING DISEASE” (Halda Therapeutics OpCo. Inc., priority 2022, published 2026).
Where two headings read alike, the source gives them in different places.

What was measured:
[1] = test system: T-Rex 293 cell line SC3 cells having increased expression of androgen receptor protein due to exposure to doxycycline; test: Cellular growth inhibition assay, T-Rex 293 SC3 cells with doxycycline (CellTiter-Glo, 72 hours); format: cell-based; conditions: T-Rex 293 SC3 cells with increased androgen receptor expression due to doxycycline (10 ng/mL)
Outline: (§1)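 Growth inhibition is measured in an inducible AR-expressing T-Rex 293 clone, SC3, cultured with or without 10 ng/mL doxycycline in hormone-depleted medium. Test compounds are applied for 72 hours. GI50 values derive from CellTiter-Glo 2.0 signal fitted by four-parameter regression.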

[2] = test system: T-Rex 293 cell line SC3 cells lacking increased expression of androgen receptor protein; test: Cellular growth inhibition assay, T-Rex 293 SC3 cells without doxycycline (CellTiter-Glo, 72 hours); format: cell-based; conditions: T-Rex 293 cell line SC3 cells not exposed to doxycycline (lacking increased androgen receptor expression)
Outline: as §1

VCaP cells = test: Cellular growth inhibition assay for VCaP cells (CellTiter-Glo, 72 hours); format: cell-based, human
Outline: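 Luminescent viability signal after 72 h of compound exposure gave GI50 values by four-parameter nonlinear regression. Compounds were added in 0.5% DMSO to cells plated 24 h earlier at 5000/well in DMEM containing 10% FBS.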

Compound	GI50 (VCaP cells; Homo sapiens, VCaP, 72 h) [nM]	GI50 (VCaP cells) [nM]	GI50 ([1]; 72 h) [nM]	GI50 ([2]; 72 h) [nM]	GI50 [1] [nM]	GI50 [2] [nM]
Cc1sc2c(c1C)C(c1ccc(CCCC3CCN(c4ccc(C(=O)N[C@H]5CC[C@H](Oc6ccc(C#N)c(Cl)c6)CC5)nn4)CC3)cc1)=N[C@@H](C)c1nnc(C)n1-2 [I-592]	< 500		< 500	< 500		
Cc1sc2c(c1C)C(c1ccc(CCC3CCN(c4ccc(C(=O)NC5CCC(Oc6ccc(C#N)c(Cl)c6)CC5)nn4)CC3)cc1)=NC(C)c1nnc(C)n1-2 (stereo not drawn) [I-593]	< 500		< 500	< 500		
Cc1sc2c(c1C)C(c1ccc(N3CC4(CC(CCc5ccc(C(=O)N[C@H]6CC[C@H](Oc7ccc(C#N)c(Cl)c7)CC6)nn5)C4)C3)cc1)=N[C@@H](C)c1nnc(C)n1-2 [I-594]	500 to 1500		< 500	500 to 1500		
Cc1sc2c(c1C)C(c1ccc(OC3(C)CC4(CN(c5ccc(C(=O)N[C@H]6CC[C@H](Oc7ccc(C#N)c(Cl)c7)CC6)nn5)C4)C3)cc1)=N[C@@H](C)c1nnc(C)n1-2 [I-595]	500 to 1500		< 500	< 500		
Cc1sc2c(c1C)C(c1ccc(N3CCC(CCc4ccc(C(=O)N[C@H]5CC[C@H](Oc6ccc(C#N)c(Cl)c6)CC5)nn4)CC3)cc1)=N[C@@H](C)c1nnc(C)n1-2 [I-596]	< 500		< 500	< 500		
Cc1sc2c(c1C)C(c1ccc(OCC3CC4(CCCN(c5ccc(C(=O)N[C@H]6CC[C@H](Oc7ccc(C#N)c(Cl)c7)CC6)nn5)C4)C3)cn1)=NC1(CC1)c1nnc(C)n1-2 (stereo partly drawn) [I-597]		< 500			< 500	> 3000
Cc1sc2c(c1C)C(c1ccc(N3CC(CC4CCCN(c5ccc(C(=O)N[C@H]6CC[C@H](Oc7ccc(C#N)c(Cl)c7)CC6)nn5)C4)C3)cc1)=NC1(CC1)c1nnc(C)n1-2 (stereo partly drawn) [I-598]		< 500	< 500			< 500
CC[C@@H]1N=C(c2ccc(N3CCC4(CCN(c5ccc(C(=O)N[C@H]6CC[C@H](Oc7ccc(C#N)c(Cl)c7)CC6)nn5)CC4)C3)cc2)c2c(sc(C)c2C)-n2c(C)nnc21 [I-599]	> 3000		< 500	> 3000		
COCC[C@@H]1N=C(c2ccc(N3CCC4(CCN(c5ccc(C(=O)N[C@H]6CC[C@H](Oc7ccc(C#N)c(Cl)c7)CC6)nn5)CC4)C3)cc2)c2c(sc(C)c2C)-n2c(C)nnc21 [I-600]	> 3000		< 500	< 500		
Cc1sc2c(c1C)C(c1ccc(N3CC4(CC(Cc5ccc(C(=O)N[C@H]6CC[C@H](Oc7ccc(C#N)c(Cl)c7)CC6)nn5)C4)C3)cc1)=N[C@@H](C)c1nnc(C)n1-2 [I-604]	< 500		< 500	< 500		
Cc1sc2c(c1C)C(c1ccc(N3CCC4(CC3)CC(Cc3ccc(C(=O)N[C@H]5CC[C@H](Oc6ccc(C#N)c(Cl)c6)CC5)nn3)C4)cc1)=N[C@@H](C)c1nnc(C)n1-2 [I-605]	< 500		< 500	> 3000		
Cc1sc2c(c1C)C(c1ccc(N3CCC(Cc4ccc(C(=O)N[C@H]5CC[C@H](Oc6ccc(C#N)c(Cl)c6)CC5)nn4)CC3)cc1)=N[C@@H](C)c1nnc(C)n1-2 [I-606]	> 3000		< 500	> 3000		
Cc1sc2c(c1C)C(c1ccc(C3CCC4(CC3)CCN(c3ccc(C(=O)N[C@H]5CC[C@H](Oc6ccc(C#N)c(Cl)c6)CC5)nn3)C4)nc1)=NC1(CC1)c1nnc(C)n1-2 (stereo partly drawn) [I-607]		> 3000	< 500			> 3000
Cc1sc2c(c1C)C(c1ccc(C3CCC4(CC3)CCN(c3ccc(C(=O)N[C@H]5CC[C@H](Oc6ccc(C#N)c(Cl)c6)CC5)nn3)C4)nc1)=NC1(CC1)c1nnc(C)n1-2 (stereo partly drawn) [I-608]		< 500			< 500	500 to 1500
Cc1sc2c(c1C)C(c1ccc(C3CCC4(CCN(c5ccc(C(=O)N[C@H]6CC[C@H](Oc7ccc(C#N)c(Cl)c7)CC6)nn5)CC4)C3)nc1)=NC1(CC1)c1nnc(C)n1-2 (stereo partly drawn) [I-609]	< 500		< 500			500 to 1500
CC[C@@H]1N=C(c2ccc(N3CC4(CC(Cc5ccc(C(=O)N[C@H]6CC[C@H](Oc7ccc(C#N)c(Cl)c7)CC6)nn5)C4)C3)cc2)c2c(sc(C)c2C)-n2c(C)nnc21 [I-610]	500 to 1500		< 500	> 3000		
CC[C@@H]1N=C(c2ccc(N3CC4(CC(CCc5ccc(C(=O)N[C@H]6CC[C@H](Oc7ccc(C#N)c(Cl)c7)CC6)nn5)C4)C3)cc2)c2c(sc(C)c2C)-n2c(C)nnc21 [I-611]	< 500		< 500	> 3000		
CC[C@@H]1N=C(c2ccc(N3CCC4(CC3)CC(Cc3ccc(C(=O)N[C@H]5CC[C@H](Oc6ccc(C#N)c(Cl)c6)CC5)nn3)C4)cc2)c2c(sc(C)c2C)-n2c(C)nnc21 [I-612]	< 500		< 500	> 3000		
CC[C@@H]1N=C(c2ccc(N3CCC(CCc4ccc(C(=O)N[C@H]5CC[C@H](Oc6ccc(C#N)c(Cl)c6)CC5)nn4)CC3)cc2)c2c(sc(C)c2C)-n2c(C)nnc21 [I-613]	< 500		< 500	1500 to 3000		
CC[C@@H]1N=C(c2ccc(N3CCC(Cc4ccc(C(=O)N[C@H]5CC[C@H](Oc6ccc(C#N)c(Cl)c6)CC5)nn4)CC3)cc2)c2c(sc(C)c2C)-n2c(C)nnc21 [I-614]	< 500		< 500	500 to 1500		
COC[C@@H]1N=C(c2ccc(N3CCC4(CCN(c5ccc(C(=O)N[C@H]6CC[C@H](Oc7ccc(C#N)c(Cl)c7)CC6)nn5)CC4)C3)cc2)c2c(sc(C)c2C)-n2c(C)nnc21 [I-615]	< 500		< 500	< 500		

Further lines, with some results ahead:

GI50 (VCaP cells; Homo sapiens, VCaP, 72 h) [nM]	GI50 (VCaP cells) [nM]	Compound	GI50 ([1]; 72 h) [nM]	GI50 ([2]; 72 h) [nM]	GI50 [1] [nM]	GI50 [2] [nM]
	> 3000	COCC[C@@H]1N=C(c2ccc(C3CCC4(CCN(c5ccc(C(=O)N[C@H]6CC[C@H](Oc7ccc(C#N)c(Cl)c7)CC6)nn5)CC4)C3)cc2)c2c(sc(C)c2C)-n2c(C)nnc21 (stereo partly drawn) [I-616]	< 500	< 500		
	< 500	COCC[C@@H]1N=C(c2ccc(C3CCC4(CCN(c5ccc(C(=O)N[C@H]6CC[C@H](Oc7ccc(C#N)c(Cl)c7)CC6)nn5)CC4)C3)cc2)c2c(sc(C)c2C)-n2c(C)nnc21 (stereo partly drawn) [I-617]			< 500	500 to 1500
	< 500	Cc1sc2c(c1C)C(c1ccc(N3CCC4CN(c5ccc(C(=O)N[C@H]6CC[C@H](Oc7ccc(C#N)c(Cl)c7)CC6)nn5)CCC4C3)cc1)=N[C@@H](C)c1nnc(C)n1-2 (stereo partly drawn) [I-620]			< 500	< 500
	500 to 1500	Cc1sc2c(c1C)C(c1ccc(N3CCC4CN(c5ccc(C(=O)N[C@H]6CC[C@H](Oc7ccc(C#N)c(Cl)c7)CC6)nn5)CCC4C3)cc1)=N[C@@H](C)c1nnc(C)n1-2 (stereo partly drawn) [I-621]			< 500	> 3000
	> 3000	Cc1sc2c(c1C)C(c1ccc(CC3CCC4(CCCN(c5ccc(C(=O)N[C@H]6CC[C@H](Oc7ccc(C#N)c(Cl)c7)CC6)nn5)C4)C3)cn1)=N[C@@H](C)c1nnc(C)n1-2 (stereo partly drawn) [I-622]	< 500	< 500		
	500 to 1500	Cc1sc2c(c1C)C(c1ccc(CC3CCC4(CCCN(c5ccc(C(=O)N[C@H]6CC[C@H](Oc7ccc(C#N)c(Cl)c7)CC6)nn5)C4)C3)cn1)=N[C@@H](C)c1nnc(C)n1-2 (stereo partly drawn) [I-623]			< 500	500 to 1500
	500 to 1500	Cc1sc2c(c1C)C(c1ccc(COC3CCC4(CCCN(c5ccc(C(=O)N[C@H]6CC[C@H](Oc7ccc(C#N)c(Cl)c7)CC6)nn5)C4)C3)cc1)=N[C@@H](C)c1nnc(C)n1-2 (stereo partly drawn) [I-624]			< 500	500 to 1500
	< 500	Cc1sc2c(c1C)C(c1ccc(COC3CCC4(CCCN(c5ccc(C(=O)N[C@H]6CC[C@H](Oc7ccc(C#N)c(Cl)c7)CC6)nn5)C4)C3)cc1)=N[C@@H](C)c1nnc(C)n1-2 (stereo partly drawn) [I-625]			< 500	< 500
< 500		Cc1sc2c(c1C)C(c1ccc(OCC3CCC4(CCCN(c5ccc(C(=O)N[C@H]6CC[C@H](Oc7ccc(C#N)c(Cl)c7)CC6)nn5)C4)C3)cc1)=N[C@@H](C)c1nnc(C)n1-2 (stereo partly drawn) [I-626]	< 500	< 500		
	< 500	Cc1sc2c(c1C)C(c1ccc(OCC3CCC4(CCCN(c5ccc(C(=O)N[C@H]6CC[C@H](Oc7ccc(C#N)c(Cl)c7)CC6)nn5)C4)C3)cc1)=N[C@@H](C)c1nnc(C)n1-2 (stereo partly drawn) [I-627]			< 500	< 500
< 500		Cc1sc2c(c1C)C(c1ccc(CC3CC(CC4CCN(c5ccc(C(=O)N[C@H]6CC[C@H](Oc7ccc(C#N)c(Cl)c7)CC6)nn5)CC4)C3)cc1)=N[C@@H](C)c1nnc(C)n1-2 (stereo partly drawn) [I-628]	< 500	> 3000		
	< 500	Cc1sc2c(c1C)C(c1ccc(CC3CC(CC4CCN(c5ccc(C(=O)N[C@H]6CC[C@H](Oc7ccc(C#N)c(Cl)c7)CC6)nn5)CC4)C3)cc1)=N[C@@H](C)c1nnc(C)n1-2 (stereo partly drawn) [I-629]			< 500	> 3000
	1500 to 3000	Cc1sc2c(c1C)C(c1ccc(C3CCC4(CC3)CCN(c3ccc(C(=O)N[C@H]5CC[C@H](Oc6ccc(C#N)c(Cl)c6)CC5)nn3)CC4)nc1)=N[C@@H](C)c1nnc(C)n1-2 [I-630]	< 500	< 500		
< 500		Cc1sc2c(c1C)C(Oc1ccc(C3CC4(CCN(c5ccc(C(=O)N[C@H]6CC[C@H](Oc7ccc(C#N)c(Cl)c7)CC6)nn5)CC4)C3)cc1)=NC(Cc1ncco1)c1nnc(C)n1-2 (stereo partly drawn) [I-631]	> 3000	> 3000		
< 500		CC[C@@H]1N=C(c2ccc(OC3(C)CC4(CN(c5ccc(C(=O)N[C@H]6CC[C@H](Oc7ccc(C#N)c(Cl)c7)CC6)nn5)C4)C3)cc2)c2c(sc(C)c2C)-n2c(C)nnc21 [I-632]	< 500	< 500		
